From patent publication US6706664B1, “Benzoxazole compounds, process for the preparation thereof and herbicides” (UBE Industries, Ltd., priority 1999, dated 2004)

Columns and labels:
Set-up in all cases: key: 0: normal development; 1: Less damaged; 2: Slightly damaged; 3: Moderately damaged; 4: Severely damaged; 5: All killed
green foxtail [1] = test: Soil treatment test for upland field; assay type: in vivo, Setaria viridis; details: 500 g/ha, glass house 25° C., 3 weeks
Outline: (§1)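 Soil treatment, 500 g/ha, sprayed onto soil surface after sowing; alluvial Ube soil; 0.05% surfactant in diluent; glasshouse, avg 25° C, 3 wk; visual score 0–5 (5 = all killed).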

Large crabgrass [2] = test: Soil treatment test for upland field; assay type: in vivo, Digitaria adscendens; details: 500 g/ha, glass house 25° C., 3 weeks
Outline: as §1

monochoria = test: Herbicidal test for paddy field; assay type: in vivo, Monochoria vaginalis; details: paddy field pot, 500 g/ha dropwise at 1.5 leaf stage of barnyardgrass, 3 weeks, rank vs non-treated
Outline: (§2)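 Scores run on a six-point scale from 0 for normal development to 5 for all plants killed, judged against non-treated pots. Plants were grown in Ube soil under 3 cm of standing water and treated by pipet with 500 g/ha of the compound once barnyardgrass had 1.5 leaves. Assessment followed 3 weeks in a glasshouse averaging 25° C.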

Large crabgrass [3] = test: Foliar spread test for upland field; assay type: in vivo, Digitaria adscendens; details: foliar spray 500 ppm, 3 weeks, rank vs non-treated
Outline: (§3)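 Scoring used a 0–5 scale, where 0 meant normal development and 5 meant all plants killed, assessed 3 weeks after treatment. Plants had been grown about 2 weeks from seed in volcanic ash soil before a uniform spray at 500 ppm containing 0.5% surfactant.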

annual bluegrass [4] = test: Foliar spread test for upland field; assay type: in vivo, Poa annua; details: foliar spray 500 ppm, 3 weeks, rank vs non-treated
Outline: as §3

sugar beat = test: Foliar spread test for upland field; assay type: in vivo; details: foliar spray 500 ppm, 3 weeks, rank vs non-treated
Outline: (§4)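 Crops and weeds grown about 2 weeks in volcanic ash soil in a glasshouse, then sprayed with wettable-powder formulations diluted to 500 ppm in water with 0.5% surfactant. After 3 weeks at 25 °C, injury scored visually 0 (normal) to 5 (all killed).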

wheat = test: Foliar spread test for upland field; assay type: in vivo; details: foliar spray 500 ppm, 3 weeks, rank vs non-treated
Outline: as §4

solgum = test: Foliar spread test for upland field; assay type: in vivo; details: foliar spray 500 ppm, 3 weeks, rank vs non-treated
Outline: as §4

corn = test: Foliar spread test for upland field; assay type: in vivo; details: foliar spray 500 ppm, 3 weeks, rank vs non-treated
Outline: as §4

morning glory = test: Foliar spread test for upland field; assay type: in vivo, Ipomoea spps.; details: foliar spray 500 ppm, 3 weeks, rank vs non-treated
Outline: as §3

green foxtail [5] = test: Foliar spread test for upland field; assay type: in vivo, Setaria viridis; details: foliar spray 500 ppm, 3 weeks, rank vs non-treated
Outline: as §3

blackgrass [6] = test: Foliar spread test for upland field; assay type: in vivo, Alopecurus aegualis; details: foliar spray 500 ppm, 3 weeks, rank vs non-treated
Outline: as §3

common lambsquartes = test: Foliar spread test for upland field; assay type: in vivo, Chenopodium album; details: foliar spray 500 ppm, 3 weeks, rank vs non-treated
Outline: as §3

annual bluegrass [7] = test: Soil treatment test for upland field; assay type: in vivo, Poa annua; details: 500 g/ha, glass house 25° C., 3 weeks
Outline: as §1

blackgrass [8] = test: Soil treatment test for upland field; assay type: in vivo, Alopecurus aegualis; details: 500 g/ha, glass house 25° C., 3 weeks
Outline: as §1

young rice plant = test: Herbicidal test for paddy field; assay type: in vivo; details: paddy field pot, 500 g/ha dropwise at 1.5 leaf stage of barnyardgrass, 3 weeks, rank vs non-treated
Outline: as §2

livid amaranth [9] = test: Foliar spread test for upland field; assay type: in vivo, Amaranthus lividus; details: foliar spray 500 ppm, 3 weeks, rank vs non-treated
Outline: as §3

livid amaranth [10] = test: Soil treatment test for upland field; assay type: in vivo, Amaranthus lividus; details: 500 g/ha, glass house 25° C., 3 weeks
Outline: as §1

velvetleaf = test: Foliar spread test for upland field; assay type: in vivo, Abutilon theophrasti; details: foliar spray 500 ppm, 3 weeks, rank vs non-treated
Outline: as §3

SMILES	Effects Green foxtail (green foxtail [1])	Effects Large crabgrass (Large crabgrass [2])	Effect Monochoria (monochoria)	Effects Large crabgrass (Large crabgrass [3])	Effects Annual bluegrass (annual bluegrass [4])	Effects Sugar beat (sugar beat)	Effects Wheat (wheat)	Effects Solgum (solgum)	Effects Corn (corn)	Effects Morning glory (morning glory)	Effects Green foxtail (green foxtail [5])	Effects Blackgrass (blackgrass [6])	Effects Common lambsquarters (common lambsquartes)	Effects Annual bluegrass (annual bluegrass [7])	Effects Blackgrass (blackgrass [8])	Effect Young rice plant (young rice plant)	Effects Livid amaranth (livid amaranth [9])	Effects Livid amaranth (livid amaranth [10])	Effects Velvetleaf (velvetleaf)
CCC(Oc1cccc(C(F)(F)F)c1)c1nc2cc(F)ccc2o1 (stereo not shown) [Compound 120]	5	5	5	1	1	5	2	2	3	5	3	2	4	5	3	1	5	3	–
CCC(Oc1ccc(F)c(C(F)(F)F)c1)c1nc2cc(Cl)ccc2o1 (stereo not shown) [Compound 139]	5	5	5	2	3	–	2	2	3	5	4	2	5	5	5	2	5	5	3
CCC(Oc1cccc(C(F)(F)F)c1)c1nc2cc(Cl)ccc2o1 (stereo not shown) [Compound 140]	5	5	5	2	2	3	2	2	3	3	2	2	4	5	4	1	4	5	2
CCCC(Oc1ccc(F)c(C(F)(F)F)c1)c1nc2cc(Cl)ccc2o1 (stereo not shown) [Compound 141]	5	5	5	4	4	–	2	1	2	4	4	4	4	5	5	1	4	5	4
CCC(Oc1ccc(F)c(C(F)(F)F)c1)c1nc2cc(Br)ccc2o1 (stereo not shown) [Compound 165]	5	5	5	3	2	–	2	2	2	4	4	3	3	5	4	2	4	5	3
CCC(Oc1ccc(F)c(C(F)(F)F)c1)c1nc2cc([N+](=O)[O-])ccc2o1 (stereo not shown) [Compound 177]	5	5	5	2	4	–	2	2	2	5	5	2	4	5	5	2	5	5	4
CCC(Oc1ccc(F)c(C(F)(F)F)c1)c1nc2cc(C(F)(F)F)ccc2o1 (stereo not shown) [Compound 197]	5	5	5	3	2	–	2	2	4	4	5	4	4	5	5	3	4	5	3
CCC(Oc1ccc(Cl)c(C(F)(F)F)c1)c1nc2cc(F)ccc2o1 (stereo not shown) [Compound 441]	5	5	5	2	1	4	2	2	2	1	3	2	3	5	3	1	3	5	–
CCC(Oc1cccc(C(F)(F)F)c1)c1nc2cc(F)c(C(F)(F)F)cc2o1 (stereo not shown) [Compound 471]	5	5	5	5	3	5	2	3	2	5	5	3	5	5	5	–	5	5	3
CCCC(Oc1cccc(C(F)(F)F)c1)c1nc2cc(F)c(C(F)(F)F)cc2o1 (stereo not shown) [Compound 474]	5	5	5	5	3	5	2	2	2	5	5	2	5	5	5	–	5	5	2
